Data as given in patent publication US12226399B2, “Oral aqueous suspension formulation comprising carbamate compound” (SK BIOPHARMACEUTICALS CO., LTD., priority 2021, dated 2025).

Assay: Visual wetting of cenobamate API on wetting agent solution
Assay type: physicochemical
Settings: in the presence of poloxamer 188; time for cenobamate to fall below the surface
Experimental: Poloxamer 188 was evaluated at different concentrations for sedimentation volume, dispensability and wettability of cenobamate containing dispersion in a neat citrate or phosphate buffer at pH 3 to 7. Approximately one hundred milligrams (100 mg) of cenobamate was dispersed in 10 mL of the poloxamer liquid at the concentration of 0.10, 0.50, 1.00, and 1.50 mg/mL in phosphate buffer pH 4.2 and the dispersions were evaluated for sedimentation volume, re-dispersibility, and wettability. Additionally, separate samples containing poloxamer 188 at the concertation of 0.1 mg/ml were also prepared in citrate buffer at different levels of pH (pH 3.5, 4.2 and 5.2), and evaluated in the same manner.
The volume of the sedimentation layer is an indicator to the amount of spacing between the particles in the sediment layer. Physical observations indicated these dispersions settled rapidly but formed a loosely packed layer which was very easily re-dispersed after inversion and/or shaking (FIGS. 1 and 2).
The following intended effects that were observed are immediate wetting of most of the material after adding cenobamate to the poloxamer solution, rapid and loose initial sedimentation within first 30 minutes to 1 hour as measured by ratio of sediment volume to total volume, no caking and efficient re-dispersion, rapidly dispersing material after shaking the settled sample for 10 seconds.

NC(=O)O[C@@H](Cn1ncnn1)c1ccccc1Cl [cenobamate, carbamic acid (R)-1-(2-chlorophenyl)-2-tetrazol-2-yl-ethyl ester]
Wetting of cenobamate: good wetting
